Among the test systems are A549 NSCLC; ACHN renal; CAKI-1 renal; HCT-116 colon; HS 578T breast; MOLT-4 leukemia; SK-OV-3 ovarian; SNB-19 CNS; SNB-75 CNS; EKVX NSCLC.
What all share (experiment): inhibition of tumour cell growth, NCI panel, 48 h

These results are taken from PubChem BioAssay (NCI).

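Exposure lasted 48 hours, with cells grown in 96-well plates and compounds tested at five concentrations. GI50: concentration for 50% inhibition of growth. TGI marks complete inhibition of growth.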 Bounds are passed on as bounds.

As to `COc1ccc(C2CC(c3cccc(Nc4ccnc5cc(Cl)ccc45)c3)=NN2c2ccc(Cl)cc2)cc1` (stereo not drawn), the GI50 in the experiment with A549 NSCLC is 4.7 µM; in the experiment on ACHN renal, 4.63 µM; in the experiment on CAKI-1 renal it was 2.38 µM; in the experiment on HCT-116 colon, 2.27 µM; in the experiment on HS 578T breast, 14.7 µM; in the experiment with MOLT-4 leukemia, 3.18 µM. The GI50 is 15 µM with SK-OV-3 ovarian, 15.9 µM with SNB-19 CNS and 12.5 µM with SNB-75 CNS. Besides, the TGI was above 100 µM in the experiment on A549 NSCLC; 90.6 µM with ACHN renal; above 100 µM in the experiment on CAKI-1 renal; 19.2 µM in the experiment on HCT-116 colon; above 100 µM in the experiment on HS 578T breast; 69.5 µM in the experiment with MOLT-4 leukemia. Also, the TGI was 99.3 µM with SK-OV-3 ovarian, above 100 µM with SNB-19 CNS and 97.9 µM in the experiment with SNB-75 CNS.
Regarding `CCOC(=O)c1ccccc1NC(c1ccccc1)c1ccc2cccnc2c1O` (stereo not drawn), the GI50 is 3.3 µM in the experiment with A549 NSCLC; 3.07 µM in the experiment with ACHN renal; 3.05 µM in the experiment with CAKI-1 renal; 3.41 µM in the experiment on HCT-116 colon; 7.53 µM with HS 578T breast; 2.54 µM in the experiment on MOLT-4 leukemia. Moreover, the GI50 with SK-OV-3 ovarian was 3.64 µM; in the experiment with SNB-19 CNS, 2.83 µM; in the experiment with SNB-75 CNS it was 2.6 µM. Besides, the TGI in the experiment with A549 NSCLC is above 100 µM; with ACHN renal it was above 100 µM; with CAKI-1 renal it was above 100 µM; in the experiment on HCT-116 colon, 80.1 µM; in the experiment with HS 578T breast, above 100 µM; in the experiment on MOLT-4 leukemia, above 100 µM. In addition, the TGI with SK-OV-3 ovarian was 56.4 µM; in the experiment on SNB-19 CNS, above 100 µM; in the experiment with SNB-75 CNS, 89.8 µM.
Take `COc1c(C)cnc(Cn2cnc3c(Cl)nc(N)nc32)c1C`: the GI50 in the experiment with A549 NSCLC is 0.179 µM; in the experiment on ACHN renal, 0.289 µM; in the experiment on CAKI-1 renal it was 0.397 µM; in the experiment on HCT-116 colon, 0.12 µM; in the experiment with HS 578T breast, 3.53 µM; with MOLT-4 leukemia, 0.281 µM. In addition, the GI50 with SK-OV-3 ovarian was 0.23 µM; in the experiment with SNB-19 CNS it was 0.48 µM; in the experiment on SNB-75 CNS, 3.13 µM. Further, the TGI in the experiment with A549 NSCLC, with ACHN renal, with CAKI-1 renal, in the experiment with HCT-116 colon, in the experiment on HS 578T breast and with MOLT-4 leukemia was above 100 µM each time. The TGI in the experiment with SK-OV-3 ovarian is above 70.6 µM; with SNB-19 CNS, above 100 µM; in the experiment with SNB-75 CNS it was above 100 µM.
For the compound `Cc1cccc(NC(=O)c2sc3nc4c(cc3c2N)CCC4)c1C`, the GI50 was 0.453 µM in the experiment with A549 NSCLC; 0.951 µM in the experiment on ACHN renal; 0.332 µM in the experiment with CAKI-1 renal; 0.381 µM with HCT-116 colon; 0.486 µM in the experiment with HS 578T breast; 0.576 µM with MOLT-4 leukemia. For the same compound, the GI50 in the experiment on SK-OV-3 ovarian was 0.379 µM; with SNB-19 CNS, 0.532 µM; in the experiment with SNB-75 CNS, 0.189 µM. Moreover, the TGI in the experiment on A549 NSCLC was 13.5 µM; with ACHN renal, 36.7 µM; with CAKI-1 renal, 56.7 µM; with HCT-116 colon, 11.8 µM; in the experiment on HS 578T breast, 16 µM; with MOLT-4 leukemia it was above 100 µM. The values for the TGI in the experiment on SK-OV-3 ovarian, in the experiment on SNB-19 CNS and with SNB-75 CNS were 18.4 µM, 29.1 µM and 0.815 µM, respectively.
Turning to `Cn1c([N+](=O)[O-])cnc1/C=C1\Oc2ccc(Cl)cc2C1=O`, the GI50 was 1.95 µM with A549 NSCLC; 0.258 µM with ACHN renal; 0.257 µM in the experiment with CAKI-1 renal; 0.247 µM in the experiment on HCT-116 colon; 1.83 µM in the experiment on HS 578T breast; 0.32 µM in the experiment with MOLT-4 leukemia. Also, the GI50 in the experiment with SK-OV-3 ovarian was 2.05 µM; in the experiment on SNB-19 CNS, 1.77 µM; in the experiment with SNB-75 CNS, 0.63 µM. Moreover, the TGI is 5.88 µM in the experiment with A549 NSCLC; 0.921 µM with ACHN renal; 0.754 µM in the experiment on CAKI-1 renal; 0.793 µM with HCT-116 colon; above 24.1 µM in the experiment on HS 578T breast; 3.32 µM in the experiment with MOLT-4 leukemia. Besides, the TGI in the experiment on SK-OV-3 ovarian came out at 7.24 µM; in the experiment with SNB-19 CNS, 6.95 µM; in the experiment on SNB-75 CNS it was 2.27 µM.
On to `COC(=O)C1CCC2(CC1)NC(=O)NC2=O` (stereo not drawn), for which the TGI in the experiment with A549 NSCLC, in the experiment with ACHN renal, with CAKI-1 renal, in the experiment on EKVX NSCLC, in the experiment with HCT-116 colon and in the experiment with MOLT-4 leukemia was above 100 µM in each case. Besides, the TGI with SK-OV-3 ovarian, with SNB-19 CNS and in the experiment with SNB-75 CNS was above 100 µM in each case.
Take `O=S(O)CCCSSCCCCSSCCCS(=O)O`: the TGI with A549 NSCLC, in the experiment with ACHN renal, in the experiment with CAKI-1 renal, in the experiment with EKVX NSCLC, in the experiment on HCT-116 colon and in the experiment with MOLT-4 leukemia was above 100 µM each time. Besides, the TGI in the experiment with SK-OV-3 ovarian, in the experiment on SNB-19 CNS and with SNB-75 CNS was above 100 µM in each case.
In the case of `Cc1cn2cc(-c3ccncc3)nc2s1`, the TGI with A549 NSCLC, with ACHN renal, in the experiment on CAKI-1 renal, in the experiment on EKVX NSCLC, in the experiment with HCT-116 colon and in the experiment on MOLT-4 leukemia was above 100 µM throughout. Moreover, the TGI in the experiment with SK-OV-3 ovarian, with SNB-19 CNS and in the experiment with SNB-75 CNS was above 100 µM each time.
With `COc1cc(/C=C/C(=O)C(C)(C)C)cc(OC)c1OC`, the TGI in the experiment on A549 NSCLC, with ACHN renal, in the experiment with CAKI-1 renal, in the experiment with EKVX NSCLC, in the experiment with HCT-116 colon and in the experiment with MOLT-4 leukemia was above 100 µM each time. Further, the results for the TGI in the experiment with SK-OV-3 ovarian, in the experiment with SNB-19 CNS and in the experiment with SNB-75 CNS were above 100 µM, above 100 µM and 68.5 µM, respectively.
For `CC(C)CCC[C@@H](C)[C@H]1CC[C@H]2[C@@H]3CC=C4CC(OCCCCN(O)CCCSC5OC(CO)C(O)C(O)C5O)CC[C@]4(C)[C@H]3CC[C@]12C` (stereo partly drawn), the TGI in the experiment on A549 NSCLC, in the experiment with ACHN renal, in the experiment on CAKI-1 renal, in the experiment with EKVX NSCLC, with HCT-116 colon and with MOLT-4 leukemia was above 100 µM each time. For the same compound, the TGI with SK-OV-3 ovarian, in the experiment on SNB-19 CNS and with SNB-75 CNS was above 100 µM each time.
Regarding `O=c1c2ccccc2nc(-c2ccccc2Cl)n1NC1OC(CO)C(O)C(O)C1O` (stereo not drawn), the TGI in the experiment on A549 NSCLC, in the experiment with ACHN renal, with CAKI-1 renal, in the experiment with EKVX NSCLC, in the experiment with HCT-116 colon and in the experiment on MOLT-4 leukemia was above 100 µM in each case. The TGI in the experiment with SK-OV-3 ovarian, in the experiment with SNB-19 CNS and in the experiment on SNB-75 CNS was above 100 µM in each case.
`CC(=O)NC1C(=O)CC(c2ccccc2)N(C)C1c1ccccc1` (stereo not drawn): the TGI in the experiment on A549 NSCLC, in the experiment with ACHN renal, with CAKI-1 renal, in the experiment with EKVX NSCLC, with HCT-116 colon and in the experiment with MOLT-4 leukemia was above 100 µM each time. Also, the TGI in the experiment with SK-OV-3 ovarian, in the experiment on SNB-19 CNS and with SNB-75 CNS was above 100 µM in each case.
Consider `O=C(Nc1cccc(Cl)c1)c1cc2cc(N=Nc3ccc(Br)cc3)ccc2oc1=O`, for which the TGI was above 100 µM in the experiment on A549 NSCLC; above 100 µM in the experiment on ACHN renal; above 100 µM in the experiment with CAKI-1 renal; above 100 µM with EKVX NSCLC; above 100 µM in the experiment on HCT-116 colon; 77.7 µM in the experiment with MOLT-4 leukemia. Further, the TGI in the experiment with SK-OV-3 ovarian, in the experiment with SNB-19 CNS and in the experiment with SNB-75 CNS was above 100 µM each time.
Regarding `COc1ccc(/C=C(\NC(=O)c2ccccc2)c2nc3ccccc3[nH]2)cc1`, the TGI is above 100 µM with A549 NSCLC; above 100 µM with ACHN renal; above 100 µM in the experiment with CAKI-1 renal; above 100 µM in the experiment with EKVX NSCLC; above 100 µM in the experiment on HCT-116 colon; 83.1 µM in the experiment with MOLT-4 leukemia. Moreover, the TGI in the experiment with SK-OV-3 ovarian was 96.5 µM; with SNB-19 CNS, above 100 µM; in the experiment with SNB-75 CNS, 99.4 µM.
With `Cc1ccc(S(=O)(=O)NC2(C=O)CCC(C(C)(C)C)CC2)cc1` (stereo not drawn), the TGI was above 100 µM with A549 NSCLC; above 100 µM with ACHN renal; above 100 µM in the experiment on CAKI-1 renal; above 100 µM with EKVX NSCLC; 68.8 µM in the experiment with HCT-116 colon; 41.3 µM in the experiment with MOLT-4 leukemia. Further, the TGI in the experiment with SK-OV-3 ovarian, in the experiment with SNB-19 CNS and in the experiment with SNB-75 CNS was above 100 µM in each case.
With `CC1SC(c2cccc(Oc3ccccc3)c2)N(CCc2cccs2)C1=O` (stereo not drawn), the GI50 in the experiment on A549 NSCLC was 0.864 µM; with ACHN renal, 1.14 µM; in the experiment with CAKI-1 renal, 0.519 µM; in the experiment on EKVX NSCLC, 0.368 µM; with HCT-116 colon, 0.457 µM; in the experiment with MOLT-4 leukemia, 0.77 µM. The figures for the GI50 in the experiment with SK-OV-3 ovarian, in the experiment on SNB-19 CNS and with SNB-75 CNS were 1.92 µM, 1.64 µM and 1.3 µM, respectively. The TGI with A549 NSCLC is 3.67 µM; with ACHN renal, 4.97 µM; in the experiment with CAKI-1 renal, 3.37 µM; in the experiment with EKVX NSCLC, 1.92 µM; in the experiment on HCT-116 colon it was 1.76 µM; in the experiment on MOLT-4 leukemia, 4.97 µM. Besides, the TGI is 5.32 µM with SK-OV-3 ovarian, 9.01 µM in the experiment with SNB-19 CNS and 3.71 µM in the experiment on SNB-75 CNS.
